# Assay results published in patent US10172875B2, “Therapeutic combinations comprising anti-FOLR1 immunoconjugates” (ImmunoGen, Inc., priority 2015, dated 2019).
# Read-outs that look alike come from different tables or passages of the source.
# Assays:
# [1] = test system: platinum-resistant ovarian cancer PDXs; experiment: IMGN853 and PLD in platinum-resistant EOC PDX model (FIG. 10C, 10D); type: in vivo, SCID mice; conditions: QWx2: IMGN853 5 mg/kg or PLD 4 mg/kg; day 49
# Procedure: Data are expressed as mean and SEM for each time point.
# Mean values are plotted against vehicle controls.
# To extend the in vitro observations, the combination of IMGN853 and PLD was examined in a platinum-resistant EOC PDX model (FIG. 10C). Vehicle-treated animals progressed quickly and were removed from study when tumors reached volumes between 1500-2000 mm^3. QWx2 dosing of IMGN853 (5 mg/kg) inhibited tumor growth by 81% on day 49, and a similar degree of inhibition (83%) was seen when PLD (4 mg/kg) was administered on the same schedule.
# [2] = test system: ST088 human epithelial ovarian cancer (EOC) patient-derived tumor xenografts; experiment: Antitumor activity of IMGN853, bevacizumab, paclitaxel and combinations in ST088 tumor model (Example 6); type: in vivo, SCID mice; conditions: QWx2: IMGN853 5 mg/kg, bevacizumab 5 mg/kg, paclitaxel 10 mg/kg
# Procedure: Tumor volumes were measured twice weekly in three dimensions using a caliper.
# γH2AX = γH2AX immunoblot of cellular extracts, IMGN853 and carboplatin (FIG. 9C); type: cell-based; conditions: carboplatin 40 μM, IMGN853 16 nM, alone or combined, 6 hours, then 18 hours drug-free medium
# Excerpt: Cellular extracts were immunoblotted for γH2AX or actin (loading control) as indicated.
# [3] = test system: IGROV-1 ovarian tumor xenografts; experiment: Antitumor activity of IMGN853, bevacizumab and combination in IGROV-1 tumor model (Example 5); type: in vivo, SCID mice; conditions: IMGN853 5 mg/kg 1× and/or bevacizumab 5 mg/kg 1×
# Excerpt: All treatments consisted of single doses (1×).
# FIG. 4 depicts the results.
# [4] = test system: OV90 serous ovarian tumor xenografts; experiment: Antitumor activity of IMGN853 (2.5 mg/kg), bevacizumab and combination in OV90 tumor model (Example 3); type: in vivo, SCID mice; conditions: IMGN853 2.5 mg/kg 1× and/or bevacizumab 5 mg/kg 1×
# Excerpt: FIG. 2B depicts the results.
# [5] = test system: OV90 serous ovarian tumor xenografts; conditions: IMGN853 5 mg/kg 1× and/or bevacizumab 5 mg/kg 1×
# Procedure: Mice were randomized into groups (n=6 per group) by tumor volume and subsequently dosed on Day 14 post-inoculation.
# Tumor volumes were measured one to two times weekly in three dimensions using a caliper. The tumor volume was expressed in mm^3 using the formula V=Length×Width×Height×½ (Tomayko and Reynolds, Cancer Chemother. Pharmacol. 24:148-54 (1989)) Body weights were measured twice per week as an index of toxicity. Activity was assessed as described in Bissery et al. (1991).
# [6] = test system: OV90 serous ovarian tumor xenografts; experiment: Antitumor activity of IMGN853, cediranib and combination in OV90 tumor model (Example 9); type: in vivo, SCID mice; conditions: IMGN853 2.5 mg/kg 1× and/or cediranib 1.5 mg/kg qd×5
# Excerpt: The term “respond favorably” generally refers to causing a beneficial state in a subject. With respect to cancer treatment, the term refers to providing a therapeutic effect on the subject. Positive therapeutic effects in cancer can be measured in a number of ways (See, W. A. Weber, J. Nucl. Med. 50:1S-10S (2009)). For example, tumor growth inhibition, molecular marker expression, serum marker expression, and molecular imaging techniques can all be used to assess therapeutic efficacy of an anti-cancer therapeutic. Log10 Cell Kill (LCK) can be used to quantify the tumor cell kill. Log10 cell kill (LCK) is calculated with the formula LCK=(T−C)/Td×3.32, where (T−C) (or tumor growth delay (TGD)) is the median time (in days) for the treatment group and control group tumors to reach a predetermined size (tumor-free survivors excluded). Td is the tumor doubling time (estimated from nonlinear exponential curve fit of daily median of control tumor growth), and 3.32 is the number of cell doublings per log of cell growth. The ability to reduce tumor volume may be assessed, for example, by measuring a % T/C value, which is the median tumor volume of treated subjects divided by the median tumor volume of the control subjects. With respect to tumor growth inhibition, according to NCI standards, a T/C≤42% is the minimum level of anti-tumor activity. A T/C<10% is considered a high anti-tumor activity level, with T/C (%)=Median tumor volume of the treated/Median tumor volume of the control×100. A favorable response can be assessed, for example, by increased progression-free survival (PFS), disease-free survival (DFS), or overall survival (OS), complete response (CR), partial response (PR), or, in some cases, stable disease (SD), a decrease in progressive disease (PD), a […] time to progression (TTP), a decrease in CA125 in the case of ovarian cancer, or any combination thereof.
# [7] = test system: platinum-resistant ovarian cancer PDXs; experiment: IMGN853 with bevacizumab in platinum-resistant ovarian cancer PDX, 102-day study (FIG. 11B); type: in vivo, mice; conditions: IMGN853 5 mg/kg QWx2, bevacizumab 5 mg/kg QWx2, alone or combined
# Excerpt: Tumor growth was monitored out to 102 days. * P=0.011; ** P=0.018; ns, not significant (Wilcoxon test, non-adjusted).
# [8] = test system: platinum-sensitive ovarian cancer patient derived xenografts (PDXs); experiment: IMGN853 and carboplatin, single administration, in platinum-sensitive ovarian cancer PDX (FIG. 9D); type: in vivo, SCID mice
# Procedure: Data are expressed as mean and standard error of the mean (SEM) for each time point.
# To examine whether these in vitro cellular effects translated to improved efficacy in vivo, mice bearing patient-derived xenografts (PDX) obtained from an individual with EOC were treated with IMGN853 and carboplatin, both as single agents and in combination (FIG. 9D). […] Animals received a single administration of IMGN853 (2.5 mg/kg) or carboplatin (80 mg/kg), and each regimen inhibited tumor growth as monotherapy (T/C values of 43% and 20% on day 39, respectively).
# OV-90 xenografts = experiment: OV-90 tumors harvested 4 days post-dosing: histology, γH2AX, CD31, anti-maytansine (FIGS. 12A-12C); type: in vivo, mice; conditions: IMGN853 2.5 mg/kg and/or bevacizumab 5 mg/kg
# Procedure: Original magnification, 4×; scale bars, 2 mm (for Combination panel, 600 μm).
# For each group, representative micrographs from one of three tumors are shown. Original magnification, 20×; scale bars, 200 μm.
# Next, as a pharmacodynamic readout, tumor γH2AX levels were measured by immunoblotting (FIG. 12B).
# While genotoxic insults are the primary inducers of γH2AX, accumulation of this protein can also occur in response to hypoxia. […] In order to examine treatment-related effects on microvessels, immunohistochemical staining with the endothelial cell marker CD31 was performed (FIG. 12C, upper panel).
# [9] = test system: OV90 serous ovarian tumor xenografts; experiment: Antitumor activity of IMGN853 (1.25 mg/kg), paclitaxel, bevacizumab and combinations in OV90 tumor model (Example 4); type: in vivo, SCID mice; conditions: single doses: IMGN853 1.25 mg/kg, paclitaxel 10 mg/kg, bevacizumab 5 mg/kg
# Procedure: Mice were randomized into groups (n=8 per group) by tumor volume and subsequently dosed on Day 14 post-inoculation. All treatments consisted of single doses (1×).
# Tumor volumes were measured one to two times weekly in three dimensions using a caliper. […] Body weights were measured twice per week as an index of toxicity.
substance,measurement,setting,value
IMGN853,tumor growth inhibition,[1],81%
same,antitumor activity rating,[2],active
same,T/C,[2]; alone or combined,31%
same,CR,[2]; responders/animals,0/8
same,PR,[2]; responders/animals,0/8
same,γH2AX expression,γH2AX,induced γH2AX expression in IGROV-1 cells and to levels higher than those seen following carboplatin exposure alone
same,T/C,[3],20%
same,TFS,[3],0/4
same,antitumor activity rating,[3],active
same,CR,[3]; responders/animals,0/4
same,T/C,[4],36%
same,TFS,[4],0/6
same,antitumor activity rating,[4],active
same,CR,[4]; responders/animals,0/6
same,T/C,[5],36%
same,antitumor activity rating,[5],active
same,tumor free survivors (TFS),[5],0/5
same,CR,[5]; responders/animals,1/5
same,T/C,[6],31%
same,antitumor activity rating,[6],active
same,LCK,[6]; Log10 cell kill,0.5
same,PR,[6]; responders/animals,0/6
same,T−C,[6]; tumor growth delay,13 days
same,antitumor effect,[7],moderate activity
same,"single agent activity, previously determined (data not shown)",[8]; dose not stated,robust single agent activity
same,T/C,"[8]; single administration: IMGN853 2.5 mg/kg and/or carboplatin 80 mg/kg, day 39",43%
same,tumor γH2AX levels by immunoblotting,OV-90 xenografts; 4 days post-dosing,robustly induced
same,"tumor microvessels, CD31 immunohistochemical staining",OV-90 xenografts; day 4,numerous large vessels
same,TFS,[9],0/7
same,antitumor activity rating,[9],active
same,T/C,[9]; alone or combined,37%
same,CR,[9]; responders/animals,0/7
